Measured values as given in patent publication US6355799B1, “Substituted benzene compounds, process for their preparation, and herbicidal and defoliant compositions containing them” (ISK Americas Incorporated, priority 1997, dated 2002).

Columns and labels:
Assay type in all cases: in vivo
[1] = system: redroot pigweed (Amaranthus retroflexus, AMARE); test: Pre-emerge test, greenhouse herbicide activity screening
How it was run: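 Compounds in acetone were track-sprayed at 187 l/ha, 15–1000 g ai/ha, onto sandy loam pots. Pre-emerge seeds were sown one day before spraying, with surface watering afterwards. Post-emerge plants were at the 2–3 leaf stage and sprayed with 0.25% v/v non-ionic surfactant. Injury was rated 0–100 at 14 days.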

[2] = system: lambsquarters (Chenopodium album, CHEAL); test: as above
How it was run: (§1)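 Applied at 15–1000 g ai/ha from acetone in 187 l/ha spray volume. Post-emergence applications included 0.25% v/v non-ionic surfactant and reached plants sown 8–21 days before. Pre-emergence applications were incorporated by surface watering. Efficacy or crop damage was rated on a 0–100 scale after 14 days.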

[3] = system: ivyleaf morningglory (Ipomoea hederacea, IPOHE); test: as above
How it was run: as §1

[4] = system: large crabgrass (Digitaria sanguinalis, DIGSA); test: as above
How it was run: as §1

[5] = system: sicklepod (Cassia obtusifolia, CASOB); test: as above
How it was run: as §1

[6] = system: johnsongrass (Sorghum halepense, SORHA); test: as above
How it was run: as §1

[7] = system: barnyardgrass (Echinochloa crus-galli, ECHCG); test: as above
How it was run: as §1

[8] = system: velvetleaf (Abutilon theophrasti, ABUTH); test: as above
How it was run: as §1

[9] = system: green foxtail (Setaria viridis, SETVI); test: as above
How it was run: as §1

[10] = system: field corn (Zea mays L., var. Dekalb 535, CORN); test: Pre-emerge test, crop safety
How it was run: (§2)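 Fourteen days after spraying, crop and weed injury was graded visually from 0, no effect, to 100, every plant dead. Test substances were dissolved in acetone and applied at 15–1000 g ai/ha with a flat-fan nozzle. Application was either pre-emergence, one day after sowing, or post-emergence at the 2–3 leaf stage.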

[11] = system: upland rice (Oryza sp., var. Tebonnet, RICE); test: Pre-emerge test, crop safety
How it was run: as §2

[12] = system: field corn (Zea mays L., var. Dekalb 535, CORN); test: Post-emerge test, crop safety; settings: post-emerge; for Post-emerge Herbicidal Activity CORN: crop damage rating 0-100 at 14 days after application; for phytotoxicity rating CORN (crop damage): 14 days after application, rating scale 0-100
How it was run: as §1

[13] = system: upland rice (Oryza sp., var. Tebonnet, RICE); test: Post-emerge test, crop safety; settings: post-emerge; for Post-emerge Herbicidal Activity RICE: crop damage rating 0-100 at 14 days after application; for phytotoxicity rating RICE (crop damage): 14 days after application, rating scale 0-100
How it was run: as §1

[14] = system: lambsquarters (Chenopodium album, CHEAL); test: Post-emerge test, greenhouse herbicide activity screening; settings: post-emerge; for Post-emerge Herbicidal Activity CHEAL: phytotoxicity rating 0-100 at 14 days after application; for phytotoxicity rating CHEAL: 14 days after application, rating scale 0-100
How it was run: (§3)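 Sandy loam pots; pre-emerge: sown 1 d pre-spray, surface-watered after, then bottom-watered. Post-emerge: sown 8–21 d before, 2–3 leaf stage, + 0.25% v/v NIS, bottom-watered. Acetone, 187 l/ha track spray, 15–1000 g ai/ha. 0–100 injury score, day 14.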

[15] = system: ivyleaf morningglory (Ipomoea hederacea, IPOHE); test: as above; settings: post-emerge; for Post-emerge Herbicidal Activity IPOHE: phytotoxicity rating 0-100 at 14 days after application; for phytotoxicity rating IPOHE: 14 days after application, rating scale 0-100
How it was run: as §3

[16] = system: large crabgrass (Digitaria sanguinalis, DIGSA); test: as above; settings: post-emerge; for Post-emerge Herbicidal Activity DIGSA: phytotoxicity rating 0-100 at 14 days after application; for phytotoxicity rating DIGSA: 14 days after application, rating scale 0-100
How it was run: as §3

[17] = system: sicklepod (Cassia obtusifolia, CASOB); test: as above; settings: post-emerge; for Post-emerge Herbicidal Activity CASOB: phytotoxicity rating 0-100 at 14 days after application; for phytotoxicity rating CASOB: 14 days after application, rating scale 0-100
How it was run: as §3

[18] = system: johnsongrass (Sorghum halepense, SORHA); test: as above; settings: post-emerge; for Post-emerge Herbicidal Activity SORHA: phytotoxicity rating 0-100 at 14 days after application; for phytotoxicity rating SORHA: 14 days after application, rating scale 0-100
How it was run: as §3

[19] = system: barnyardgrass (Echinochloa crus-galli, ECHCG); test: as above; settings: post-emerge; for Post-emerge Herbicidal Activity ECHCG: phytotoxicity rating 0-100 at 14 days after application; for phytotoxicity rating ECHCG: 14 days after application, rating scale 0-100
How it was run: as §3

[20] = system: redroot pigweed (Amaranthus retroflexus, AMARE); test: as above; settings: post-emerge; for Post-emerge Herbicidal Activity AMARE: phytotoxicity rating 0-100 at 14 days after application; for phytotoxicity rating AMARE: 14 days after application
How it was run: as §3

[21] = system: velvetleaf (Abutilon theophrasti, ABUTH); test: as above; settings: post-emerge; for Post-emerge Herbicidal Activity ABUTH: phytotoxicity rating 0-100 at 14 days after application; for phytotoxicity rating ABUTH: 14 days after application, rating scale 0-100
How it was run: as §3

[22] = system: green foxtail (Setaria viridis, SETVI); test: as above; settings: post-emerge; for Post-emerge Herbicidal Activity SETVI: phytotoxicity rating 0-100 at 14 days after application; for phytotoxicity rating SETVI: 14 days after application, rating scale 0-100
How it was run: as §3

[23] = pre-emerge, rate 63 g ai/ha, phytotoxicity rating 0-100 at 14 days after application
[24] = pre-emerge, rate 250 g ai/ha, phytotoxicity rating 0-100 at 14 days after application
[25] = crop damage, pre-emerge, rate 63 g ai/ha, phytotoxicity rating 0-100 at 14 days after application
[26] = crop damage, pre-emerge, rate 250 g ai/ha, phytotoxicity rating 0-100 at 14 days after application
[27] = 63 g ai/ha, phytotoxicity rating 0-100, 14 days after application
[28] = 250 g ai/ha, phytotoxicity rating 0-100, 14 days after application
[29] = 63 g ai/ha, crop damage rating 0-100, 14 days after application
[30] = 250 g ai/ha, crop damage rating 0-100, 14 days after application

COc1cccc(OC)c1OC(=O)Nc1c(C)c(Cl)cc(F)c1-n1c(=O)cc(C(F)(F)F)n(C)c1=O [4-59]
Pre-emerge Herbicidal Activity AMARE [1, 23]: 100 | Pre-emerge Herbicidal Activity AMARE [1, 24]: 100 | Pre-emerge Herbicidal Activity CHEAL [2, 23]: 100 | Pre-emerge Herbicidal Activity CHEAL [2, 24]: 100 | Pre-emerge Herbicidal Activity IPOHE [3, 23]: 95 | Pre-emerge Herbicidal Activity IPOHE [3, 24]: 100 | Pre-emerge Herbicidal Activity DIGSA [4, 23]: 40 | Pre-emerge Herbicidal Activity DIGSA [4, 24]: 100 | Pre-emerge Herbicidal Activity CASOB [5, 23]: 20 | Pre-emerge Herbicidal Activity CASOB [5, 24]: 90 | Pre-emerge Herbicidal Activity SORHA [6, 23]: 40 | Pre-emerge Herbicidal Activity SORHA [6, 24]: 95 | Pre-emerge Herbicidal Activity ECHCG [7, 23]: 10 | Pre-emerge Herbicidal Activity ECHCG [7, 24]: 90 | Pre-emerge Herbicidal Activity ABUTH [8, 23]: 100 | Pre-emerge Herbicidal Activity ABUTH [8, 24]: 100 | Pre-emerge Herbicidal Activity SETVI [9, 23]: 30 | Pre-emerge Herbicidal Activity SETVI [9, 24]: 90 | Pre-emerge Herbicidal Activity CORN [10, 25]: 5 | Pre-emerge Herbicidal Activity CORN [10, 26]: 80 | Pre-emerge Herbicidal Activity RICE [11, 25]: 0 | Pre-emerge Herbicidal Activity RICE [11, 26]: 70 | Post-emerge Herbicidal Activity CORN ([12]; 63 g ai/ha): 5 | Post-emerge Herbicidal Activity CORN ([12]; 250 g ai/ha): 25 | Post-emerge Herbicidal Activity RICE ([13]; 63 g ai/ha): 50 | Post-emerge Herbicidal Activity RICE ([13]; 250 g ai/ha): 60 | Post-emerge Herbicidal Activity CHEAL ([14]; 63 g ai/ha): 100 | Post-emerge Herbicidal Activity CHEAL ([14]; 250 g ai/ha): 100 | Post-emerge Herbicidal Activity IPOHE ([15]; 63 g ai/ha): 100 | Post-emerge Herbicidal Activity IPOHE ([15]; 250 g ai/ha): 100 | Post-emerge Herbicidal Activity DIGSA ([16]; 63 g ai/ha): 0 | Post-emerge Herbicidal Activity DIGSA ([16]; 250 g ai/ha): 20 | Post-emerge Herbicidal Activity CASOB ([17]; 63 g ai/ha): 30 | Post-emerge Herbicidal Activity CASOB ([17]; 250 g ai/ha): 60 | Post-emerge Herbicidal Activity SORHA ([18]; 63 g ai/ha): 0 | Post-emerge Herbicidal Activity SORHA ([18]; 250 g ai/ha): 30 | Post-emerge Herbicidal Activity ECHCG ([19]; 63 g ai/ha): 0 | Post-emerge Herbicidal Activity ECHCG ([19]; 250 g ai/ha): 20 | Post-emerge Herbicidal Activity AMARE ([20]; 63 g ai/ha): 90 | Post-emerge Herbicidal Activity AMARE ([20]; 250 g ai/ha): 100 | Post-emerge Herbicidal Activity ABUTH ([21]; 63 g ai/ha): 100 | Post-emerge Herbicidal Activity ABUTH ([21]; 250 g ai/ha): 100 | Post-emerge Herbicidal Activity SETVI ([22]; 63 g ai/ha): 0 | Post-emerge Herbicidal Activity SETVI ([22]; 250 g ai/ha): 30

COc1c(Cl)cc(F)c(-n2c(=O)cc(C(F)(F)F)n(C)c2=O)c1NC(=O)OCc1ccc(F)c(F)c1 [4-30]
Pre-emerge Herbicidal Activity AMARE [1, 27]: 100 | Pre-emerge Herbicidal Activity AMARE [1, 28]: 100 | Pre-emerge Herbicidal Activity CHEAL [2, 27]: 100 | Pre-emerge Herbicidal Activity CHEAL [2, 28]: 100 | Pre-emerge Herbicidal Activity IPOHE [3, 27]: 60 | Pre-emerge Herbicidal Activity IPOHE [3, 28]: 100 | Pre-emerge Herbicidal Activity DIGSA [4, 27]: 90 | Pre-emerge Herbicidal Activity DIGSA [4, 28]: 100 | Pre-emerge Herbicidal Activity CASOB [5, 27]: 90 | Pre-emerge Herbicidal Activity CASOB [5, 28]: 95 | Pre-emerge Herbicidal Activity SORHA [6, 27]: 30 | Pre-emerge Herbicidal Activity SORHA [6, 28]: 80 | Pre-emerge Herbicidal Activity ECHCG [7, 27]: 60 | Pre-emerge Herbicidal Activity ECHCG [7, 28]: 90 | Pre-emerge Herbicidal Activity ABUTH [8, 27]: 100 | Pre-emerge Herbicidal Activity ABUTH [8, 28]: 100 | Pre-emerge Herbicidal Activity SETVI [9, 27]: 100 | Pre-emerge Herbicidal Activity SETVI [9, 28]: 100 | Pre-emerge Herbicidal Activity CORN [10, 29]: 30 | Pre-emerge Herbicidal Activity CORN [10, 30]: 70 | Pre-emerge Herbicidal Activity RICE [11, 29]: 90 | Pre-emerge Herbicidal Activity RICE [11, 30]: 90 | phytotoxicity rating CORN (crop damage) ([12]; 63 g ai/ha): 90 | phytotoxicity rating CORN (crop damage) ([12]; 250 g ai/ha): 99 | phytotoxicity rating RICE (crop damage) ([13]; 63 g ai/ha): 80 | phytotoxicity rating RICE (crop damage) ([13]; 250 g ai/ha): 85 | phytotoxicity rating CHEAL ([14]; 63 g ai/ha): 100 | phytotoxicity rating CHEAL ([14]; 250 g ai/ha): 100 | phytotoxicity rating IPOHE ([15]; 63 g ai/ha): 100 | phytotoxicity rating IPOHE ([15]; 250 g ai/ha): 100 | phytotoxicity rating DIGSA ([16]; 63 g ai/ha): 50 | phytotoxicity rating DIGSA ([16]; 250 g ai/ha): 85 | phytotoxicity rating CASOB ([17]; 63 g ai/ha): 100 | phytotoxicity rating CASOB ([17]; 250 g ai/ha): 100 | phytotoxicity rating SORHA ([18]; 63 g ai/ha): 50 | phytotoxicity rating SORHA ([18]; 250 g ai/ha): 100 | phytotoxicity rating ECHCG ([19]; 63 g ai/ha): 50 | phytotoxicity rating ECHCG ([19]; 250 g ai/ha): 90 | phytotoxicity rating AMARE ([20]; 63 g ai/ha, rating scale 0-100 (0 no damage, 100 complete death)): 100 | phytotoxicity rating AMARE ([20]; 250 g ai/ha, rating scale 0-100): 100 | phytotoxicity rating ABUTH ([21]; 63 g ai/ha): 100 | phytotoxicity rating ABUTH ([21]; 250 g ai/ha): 100 | phytotoxicity rating SETVI ([22]; 63 g ai/ha): 80 | phytotoxicity rating SETVI ([22]; 250 g ai/ha): 100
